Like-named read-outs stand apart in the source and are kept apart here.
Assays:
[1] = tested on: Escherichia coli (strain JM109); assay: MIC determination against Escherichia coli (Andrews protocol); assay type: cell-based; settings: Escherichia coli, read-out: MIC E. coli
Protocol: (§1) Minimum Inhibitory Concentrations (MICs) for the compounds prepared were determined against Escherichia coli (strain JM109) and Staphylococcus aureus (strain 9518) using the protocols described by Andrews (J. Antimicrob. Chemother., 2001, 48, Suppl. S1, 5-16).

[2] = tested on: Staphylococcus aureus (strain 9518); assay: MIC determination against Staphylococcus aureus (Andrews protocol); assay type: cell-based; settings: Staphylococcus aureus, read-out: MIC S. aureus
Protocol: as §1

[3] = Staphylococcus aureus strain 9518

Structure (SMILES) | MIC ([1]; Escherichia coli strain JM109) | MIC [2, 3] | MIC [1] | MIC [2]
N=C(N)NCc1cccc(NS(=O)(=O)c2ccc(Cl)cc2)c1.O=C(O)C(F)(F)F [Compound 55f, Amino((3-((4-chlorophenyl)sulfonamido)benzyl)amino)methaniminium 2,2,2-trifluoroacetate] | 32 to 100 µg/mL | 32 to 100 µg/mL | – | –
N=C(N)Nc1ccc(OCc2ccc(Cl)cc2)cc1.O=C(O)C(F)(F)F [Compound 23b, 1-{4-[(4-chlorophenyl)methoxy]phenyl}guanidine 2,2,2-trifluoroacetate] | > 100 µg/mL | > 100 µg/mL | – | –
N=C(N)NCc1ccc(NS(=O)(=O)c2cccc(Cl)c2)cc1.O=C(O)C(F)(F)F [Compound 55a, Amino((4-((3-chlorophenyl)sulfonamido)benzyl)amino)methaniminium 2,2,2-trifluoroacetate] | 32 to 100 µg/mL | 32 to 100 µg/mL | – | –
N=C(N)NCc1cccc(OCc2cccc(Cl)c2Cl)c1.O=C(O)C(F)(F)F [Compound 4g, 1-({3-[(2,3-dichlorophenyl)methoxy]phenyl}methyl)guanidine 2,2,2-trifluoroacetate] | – | – | 10 to 32 µg/mL | 10 to 32 µg/mL
Cl.N=C(N)N/N=C/c1nccn1Cc1ccc(C(F)(F)F)cc1 [Compound 61d, (E)-Amino(2-((1-(4-(trifluoromethyl)benzyl)-1H-imidazol-2-yl)methylene) hydrazinyl)methaniminium chloride] | 1 to 10 µg/mL | 10 to 32 µg/mL | – | –
N=C(N)NCc1cccc(NS(=O)(=O)c2cccc(C(F)(F)F)c2)c1.O=C(O)C(F)(F)F [Compound 55h, Amino((3-((3-(trifluoromethyl)phenyl)sulfonamido)benzyl)amino) methaniminium 2,2,2-trifluoroacetate] | 32 to 100 µg/mL | 32 to 100 µg/mL | – | –
COc1ccc(CNC(=N)N)cc1OCc1cccc(Cl)c1.O=C(O)C(F)(F)F [Compound 4m, 1-({3-[(3-chlorophenyl)methoxy]-4-methoxyphenyl}methyl)guanidine 2,2,2-trifluoroacetate] | – | – | > 100 µg/mL | > 100 µg/mL
COCCN(Cc1cccc(OCc2cccc(Cl)c2Cl)c1)C(=N)N.O=C(O)C(F)(F)F [Compound 9b, 1-({3-[(2,3-dichlorophenyl)methoxy]phenyl}methyl)-1-(2-methoxyethyl) guanidine 2,2,2-trifluoroacetate] | 10 to 32 µg/mL | 10 to 32 µg/mL | – | –
N=C(N)NCc1cccc(NS(=O)(=O)c2cccc(Cl)c2Cl)c1.O=C(O)C(F)(F)F [Compound 55g, Amino((3-((2,3-dichlorophenyl)sulfonamido)benzyl)amino)methaniminium 2,2,2-trifluoroacetate] | 32 to 100 µg/mL | 32 to 100 µg/mL | – | –
Cl.N=C(N)N/N=C/c1cccn1Cc1cccc(C(F)(F)F)c1 [Compound 61g, (E)-Amino(2-((1-(3-(trifluoromethyl)benzyl)-1H-pyrrol-2-yl)methylene) hydrazinyl)methaniminium chloride] | 10 to 32 µg/mL | 10 to 32 µg/mL | – | –
Cl.N=C(N)N/N=C/c1cccn1Cc1ccc(C(F)(F)F)cc1 [Compound 61h, (E)-Amino(2-((1-(4-(trifluoromethyl)benzyl)-1H-pyrrol-2-yl)methylene) hydrazinyl)methaniminium chloride] | 10 to 32 µg/mL | 10 to 32 µg/mL | – | –
N=C(N)NCc1cccc(OCc2ccc(Cl)cc2Cl)c1.O=C(O)C(F)(F)F [Compound 4d, 1-({3-[(2,4-dichlorophenyl)methoxy]phenyl}methyl)guanidine 2,2,2-trifluoroacetate] | – | – | 1 to 10 µg/mL | > 100 µg/mL
N=C(N)Nc1ccc(CNC(=O)c2ccccc2)cc1.O=C(O)C(F)(F)F [Compound 59a, Amino((4-(benzamidomethyl)phenyl)amino)methaniminium 2,2,2-trifluoroacetate] | – | – | 32 to 100 µg/mL | 32 to 100 µg/mL
N=C(N)NCc1ccc(N)cc1.O=C(O)C(F)(F)F [Compound 53b, Amino((4-aminobenzyl)amino)methaniminium 2,2,2-trifluoroacetate] | – | – | 32 to 100 µg/mL | 32 to 100 µg/mL
N=C(N)NCc1cccc(OCc2ccc(C(F)(F)F)cc2)c1.O=C(O)C(F)(F)F [Compound 4h, 1-[(3-{[4-(trifluoromethyl)phenyl]methoxy}phenyl)methyl]guanidine 2,2,2-trifluoroacetate] | – | – | 1 to 10 µg/mL | 1 to 10 µg/mL
N=C(N)Nc1ccc(CNS(=O)(=O)c2ccccc2)cc1.O=C(O)C(F)(F)F [Compound 59b, Amino((4-(phenylsulfonamidomethyl)phenyl)amino)methaniminium 2,2,2-trifluoroacetate] | – | – | 32 to 100 µg/mL | 32 to 100 µg/mL
Cl.N=C(N)N1CCc2c(cccc2OCc2cccc(Cl)c2Cl)C1 [Compound 38, 5-[(2,3-dichlorophenyl)methoxy]-1,2,3,4-tetrahydroisoquinoline-2-carboximidamide hydrochloride] | 10 to 32 µg/mL | 10 to 32 µg/mL | – | –
CN(Cc1cccc(OCc2cccc(Cl)c2Cl)c1)C(=N)N.Cl [Compound 10a, 1-({3-[(2,3-dichlorophenyl)methoxy]phenyl}methyl)-1-methylguanidine hydrochloride] | 32 to 100 µg/mL | 10 to 32 µg/mL | – | –

Structure (SMILES) | MIC ([1]; Escherichia coli strain JM109) | MIC [2, 3] | MIC [1] | MIC [2]
N=C(N)NCc1c(F)ccc(OCc2cccc(Cl)c2Cl)c1F.O=C(O)C(F)(F)F [Compound 4o, 1-({3-[(2,3-dichlorophenyl)methoxy]-2,6-difluorophenyl}methyl)guanidine 2,2,2-trifluoroacetate] | – | – | 1 to 10 µg/mL | 1 to 10 µg/mL
CC(=O)O.[H]/N=C(\N)NN=Cc1ccc(OC)c(OCc2ccc(Cl)c(Cl)c2)c1 [Compound 49g, (E)-2-(3-((3,4-dichlorobenzyl)oxy)-4-methoxybenzylidene)hydrazine-1-carboximidamide acetate] | 1 to 10 µg/mL | 10 to 32 µg/mL | – | –
Cl.N=C(N)N/N=C/c1nccn1Cc1cccc(C(F)(F)F)c1 [Compound 61c, (E)-Amino(2-((1-(3-(trifluoromethyl)benzyl)-1H-imidazol-2-yl)methylene) hydrazinyl)methaniminium chloride] | 32 to 100 µg/mL | 32 to 100 µg/mL | – | –
N=C(N)NCc1cccc(NS(=O)(=O)c2cccc(Cl)c2)c1.O=C(O)C(F)(F)F [Compound 55e, Amino((3-((3-chlorophenyl)sulfonamido)benzyl)amino)methaniminium 2,2,2-trifluoroacetate] | 32 to 100 µg/mL | 32 to 100 µg/mL | – | –
N=C(N)NCc1ccc(OCc2ccc(Cl)c(Cl)c2)cc1.O=C(O)C(F)(F)F [Compound 19d, 1-(4-((3,4-dichlorobenzyl)oxy)benzyl)guanidine 2,2,2-trifluoroacetate] | 10 to 32 µg/mL | 1 to 10 µg/mL | – | –
N=C(N)NCc1ccc(OCc2ccccc2)cc1.O=C(O)C(F)(F)F [Compound 19a, 1-(4-(benzyloxy)benzyl)guanidine 2,2,2-trifluoroacetate] | > 100 µg/mL | 10 to 32 µg/mL | – | –
N=C(N)NCc1cccc(OCc2cccc(C(F)(F)F)c2)c1.O=C(O)C(F)(F)F [Compound 4i, 1-[(3-{[3-(trifluoromethyl)phenyl]methoxy}phenyl)methyl]guanidine 2,2,2-trifluoroacetate] | – | – | 1 to 10 µg/mL | 1 to 10 µg/mL
COc1cccc(N2CCN(C(=N)N)CC2)c1.O=C(O)C(F)(F)F.O=C(O)C(F)(F)F [Compound 44b, 4-(3-methoxyphenyl)piperazine-1-carboximidamide bis-(2,2,2-trifluoroacetate)] | > 100 µg/mL | > 100 µg/mL | – | –
Cl.N=C(N)N/N=C/c1cccn1Cc1cccc(Cl)c1 [Compound 61e, (E)-Amino(2-((1-(3-chlorobenzyl)-1H-pyrrol-2-yl)methylene)hydrazinyl) methaniminium chloride] | 32 to 100 µg/mL | 10 to 32 µg/mL | – | –
CNC(=N)NCc1cccc(OCc2cccc(Cl)c2Cl)c1.O=C(O)C(F)(F)F [Compound 15, 3-({3-[(2,3-dichlorophenyl)methoxy]phenyl}methyl)-1-methylguanidine 2,2,2-trifluoroacetate] | 10 to 32 µg/mL | 10 to 32 µg/mL | – | –
N=C(N)NCc1cccc(OCc2cccc(Cl)c2)c1.O=C(O)C(F)(F)F [Compound 4c, 1-({3-[(3-chlorophenyl)methoxy]phenyl}methyl)guanidine 2,2,2-trifluoroacetate] | – | – | 10 to 32 µg/mL | 10 to 32 µg/mL
N=C(N)NCc1ccc(NC(=O)c2ccccc2)cc1.O=C(O)C(F)(F)F [Compound 57b, Amino((4-benzamidobenzyl)amino)methaniminium 2,2,2-trifluoroacetate] | – | – | 32 to 100 µg/mL | 32 to 100 µg/mL
N=C(N)NCc1cccc(OCc2ccc(Cl)c(Cl)c2)c1.O=C(O)C(F)(F)F [Compound 4e, 1-({3-[(3,4-dichlorophenyl)methoxy]phenyl}methyl)guanidine 2,2,2-trifluoroacetate] | – | – | 10 to 32 µg/mL | 1 to 10 µg/mL
N=C(N)NCc1cccc(OCc2ccc(F)cc2)c1.O=C(O)C(F)(F)F [Compound 4k, 1-({3-[(4-fluorophenyl)methoxy]phenyl}methyl)guanidine 2,2,2-trifluoroacetate] | – | – | 10 to 32 µg/mL | 32 to 100 µg/mL
N=C(N)NCc1cccc(OCc2ccc(Br)cc2)c1.O=C(O)C(F)(F)F [Compound 4j, 1-({3-[(4-bromophenyl)methoxy]phenyl}methyl)guanidine 2,2,2-trifluoroacetate] | – | – | 1 to 10 µg/mL | 10 to 32 µg/mL
N=C(N)NCc1ccc(OCc2ccc(Cl)cc2)cc1.O=C(O)C(F)(F)F [Compound 19b, 1-(4-((4-chlorobenzyl)oxy)benzyl)guanidine 2,2,2-trifluoroacetate] | > 100 µg/mL | 32 to 100 µg/mL | – | –
Cl.N=C(N)N/N=C/c1nccn1Cc1cccc(Cl)c1 [Compound 61a, (E)-amino(2-((1-(3-chlorobenzyl)-1H-imidazol-2-yl)methylene)hydrazinyl) methaniminium chloride] | 32 to 100 µg/mL | 32 to 100 µg/mL | – | –
N=C(N)NCc1ccc(NS(=O)(=O)c2cccc(Cl)c2Cl)cc1.O=C(O)C(F)(F)F [Compound 55c, Amino((4-((2,3-dichlorophenyl)sulfonamido)benzyl)amino)methaniminium 2,2,2-trifluoroacetate] | 32 to 100 µg/mL | 32 to 100 µg/mL | – | –

From US20170342025A1, “ANTIMICROBIAL COMPOUNDS, COMPOSITIONS AND METHODS” (Swansea University, priority 2014, published 2017)
